# ChEMBL document CHEMBL3886685, “Nitrogen-containing bicyclic aromatic heterocyclic compound” (2016)
# Target: Cathepsin S (Homo sapiens, UniProt P25774)
# Experiment: Inhibition Assay: 5 μL of a human cathepsin S enzyme (R&D1183-CY-010) was added to a 96-well plate so as to be 20 ng/well. Next, 10-fold dilution of the test compound (a 10 mM DMSO solution) was serially performed with a buffer solution for assay (a solution of 50 mM sodium methoxide, 250 mM sodium chloride and 5 mM dithiothreitol (DTT), adjusted to pH=4.5 with 1 N hydrochloric acid) six times such that the final concentration becomes 0.1 nM to 10 μM then, 20 μL of each of the solutions was added to the wells (the final DMSO concentration was 0.1%), and 25 μL of synthetic substrate VVR-AMC (3211-V manufactured by PEPTIDE […], INC.) was added thereto such that the final concentration becomes 40 μM, thereby starting a enzyme reaction. A fluorescence intensity (an excitation wavelength: 380 nm and a fluorescent wavelength: 460 nm) was measured at 37° C. for 10 minutes immediately after the start of the reaction using a fluorescence spectrophotometer (SPECTRA MAX GEMINI, manu
# Sequence of Cathepsin S (P25774 whole entry): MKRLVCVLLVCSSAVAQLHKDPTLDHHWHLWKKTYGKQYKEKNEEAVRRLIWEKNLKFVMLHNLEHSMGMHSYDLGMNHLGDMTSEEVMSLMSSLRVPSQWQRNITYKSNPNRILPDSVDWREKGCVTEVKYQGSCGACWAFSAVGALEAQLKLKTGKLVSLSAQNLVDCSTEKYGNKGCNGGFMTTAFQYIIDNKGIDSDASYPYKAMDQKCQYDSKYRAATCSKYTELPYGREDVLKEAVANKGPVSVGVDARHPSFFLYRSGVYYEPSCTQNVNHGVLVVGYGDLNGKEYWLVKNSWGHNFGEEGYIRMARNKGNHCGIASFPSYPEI
compound,measurement,value
CN1CCC[C@H]1C(=O)N1CCC(CCOc2ccc(-c3nc(C#N)nc4c3ccn4CC3CCOC3)cc2C(F)(F)F)CC1 (stereo partly specified),IC50,4.7 nM
